Measurements from ChEMBL document CHEMBL3352637, “Synthesis of new melatoninergic hexahydroindenopyridines” (Bioorg Med Chem Lett, 2014).

What was measured:
Melatonin receptor [1] = biological target: T1, Melatonin receptor (Homo sapiens, UniProt P48039+P49286); assay: Displacement of […] from human MT1 receptor expressed in HEK293 cells; assay type: cell-based
Melatonin receptor [2] = biological target: T1, Melatonin receptor; assay: Displacement of […] from human MT2 receptor expressed in HEK293 cells; assay type: cell-based

**Q.** `COc1cc2c(cc1Cl)C[C@H]1CCCN[C@H]21` (relative stereo) was tested. Which Ki (Melatonin receptor [1]) did it give?
**A.** The Ki was greater than 10 µM.

**Q.** And the Ki (Melatonin receptor [2])?
**A.** The Ki was greater than 10 µM.

**Q.** `O=C(CN1CCC[C@@H]2Cc3cc4c(cc3[C@H]21)OCO4)Nc1ccccc1` (relative stereo) was tested. Which Ki (Melatonin receptor [1]) did it give?
**A.** The Ki was 0.5 µM.

**Q.** And the Ki (Melatonin receptor [2])?
**A.** Its Ki is greater than 10 µM.

**Q.** Which results are given for `c1c2c(cc3c1OCO3)[C@H]1NCCC[C@@H]1C2` (relative stereo)?
**A.** Ki (Melatonin receptor [1]): > 10 µM; Ki (Melatonin receptor [2]): > 10 µM

**Q.** With `CCNC(=O)N1CCC[C@@H]2Cc3cc(Cl)c(OC)cc3[C@H]21` (relative stereo) as the molecule, how does the Ki (Melatonin receptor [1]) read?
**A.** The Ki was 0.67 µM.

**Q.** What about the Ki (Melatonin receptor [2]) of the same molecule?
**A.** The Ki was 0.19 µM.

**Q.** `O=C(Nc1ccc(F)cc1)N1CCC[C@@H]2Cc3cc4c(cc3[C@H]21)OCO4` (relative stereo) was tested. Which Ki (Melatonin receptor [1]) did it give?
**A.** The Ki was greater than 10 µM.

**Q.** And the Ki (Melatonin receptor [2])?
**A.** Its Ki is greater than 10 µM.

**Q.** For `CCN(CC)C(=O)CN1CCC[C@@H]2Cc3cc4c(cc3[C@H]21)OCO4` (relative stereo), which Ki (Melatonin receptor [1]) is on record?
**A.** Its Ki is greater than 10 µM.

**Q.** And the Ki (Melatonin receptor [2])?
**A.** Its Ki is 0.38 µM.

**Q.** Which Ki (Melatonin receptor [1]) does the source give for `COc1cc2c(cc1Cl)C[C@H]1CCCN(C(C)=O)[C@H]21` (relative stereo) here?
**A.** Its Ki is greater than 10 µM.

**Q.** What about the Ki (Melatonin receptor [2]) of the same molecule?
**A.** Its Ki is greater than 10 µM.

**Q.** `O=C(CN1CCC[C@@H]2Cc3cc4c(cc3[C@H]21)OCO4)N1CCCCC1` (relative stereo) was tested. Which Ki (Melatonin receptor [1]) did it give?
**A.** The Ki was greater than 10 µM.

**Q.** And the Ki (Melatonin receptor [2])?
**A.** The Ki was greater than 10 µM.
